In patent US6593357B1, “Pyrazole compositions useful as inhibitors of ERK” (Vertex Pharmaceuticals Incorporated, priority 2000, dated 2003):
pIC50, pKi: −log10 of the molar value.

Legend:
ERK2 = ERK2 (Homo sapiens, UniProt P28482); experiment: ERK2 inhibition, spectrophotometric coupled-enzyme assay; type: biochemical; conditions: activated ERK2 10 nM, 65 μM ATP, 30° C., pH 7.5; read-out: ERK2 Inhibitory Activity (Ki class)
KDR = KDR (Homo sapiens, UniProt P35968); experiment: KDR inhibition, standard coupled enzyme assay; type: biochemical; conditions: read-out: percent inhibition of KDR
Experimental: Compounds were screened for their ability to inhibit KDR using a standard coupled enzyme assay (Fox et al., Protein Sci., (1998) 7, 2249). Assays were carried out in a mixture of 200 mM HEPES 7.5, 10 mM MgCl2, 25 mM NaCl , 1 mM DTT and 1.5% DMSO. Final substrate concentrations in the assay were 300 μM ATP (Sigma Chemicals) and 10 μM poly E4Y (Sigma). Assays were carried out at 37° C. and 30 nM KDR. Final concentrations of the components of the coupled enzyme system were 2.5 mM phosphoenolpyruvate, 200 μM NADH, 30 μg/ML pyruvate kinase and 10 μg/ml lactate dehydrogenase.
An assay stock buffer solution was prepared containing all of the reagents listed above, with the exception of ATP and the test compound of interest. 177 μl of the stock solution was placed in a 96 well plate followed by addition of 3 μl of 2 mM DMSO stock containing the test compound (final compound concentration 30 μM). The plate was preincubated for about 10 minutes at 37° C. and the reaction initiated by addition of 20 μl of ATP (final concentration 300 μM). Rates of reaction were obtained using a Molecular Devices plate reader (Sunnyvale, Calif.) over a 5 minute read time at 37° C.

[1] = system: Colon cancer cells (HT-29 cell line); experiment: ERK inhibition cell proliferation assay (3H-thymidine uptake); type: cell-based; conditions: Homo sapiens, 3 days
Experimental: Compounds were assayed for the inhibition of ERK2 by a cell proliferation assay. In this assay, a complete media was prepared by adding 10% fetal bovine serum and penicillin/streptomycin solution to RPMI 1640 medium (JRH Biosciences). Colon cancer cells (HT-29 cell line) were added to each of 84 wells of a 96 well plate at a seeding density of 10,000 cells/well/150 μL. The cells were allowed to attach to the plate by incubating at 37° C. for 2 hours. A solution of test compound was prepared in complete media by serial dilution to obtain the following concentrations: 20 μM, 6.7 μM, 2.2 μM, 0.74 μM, 0.25 μM, and 0.08 μM. The test compound solution (50 μL) was added to each of 72 cell-containing wells. To the 12 remaining cell-containing wells, only complete media […] was added to form a control group in order to measure maximal proliferation. To the remaining 12 empty wells, complete media was added to form a vehicle control group in order to measure background. The plates were incubated at 37° C. for 3 days. A stock solution of ^3H-thymidine (1 mCi/mL, New England Nuclear, Boston, Mass.) was diluted to 20 μCi/mL in RPMI medium then 20 μL of this solution was added to each well. The plates were further incubated at 37° C. for 8 hours then harvested and analyzed for ^3H-thymidine uptake using a liquid scintillation counter.

Aurora2 = target: T1, Aurora2 (Homo sapiens, UniProt O14965); experiment: Aurora inhibition, standard coupled enzyme assay; type: biochemical; conditions: 40 μM ATP, 30° C.; read-out: Aurora2 Inhibitory Activity (IC50 class)
T1 sequence (O14965 1-403): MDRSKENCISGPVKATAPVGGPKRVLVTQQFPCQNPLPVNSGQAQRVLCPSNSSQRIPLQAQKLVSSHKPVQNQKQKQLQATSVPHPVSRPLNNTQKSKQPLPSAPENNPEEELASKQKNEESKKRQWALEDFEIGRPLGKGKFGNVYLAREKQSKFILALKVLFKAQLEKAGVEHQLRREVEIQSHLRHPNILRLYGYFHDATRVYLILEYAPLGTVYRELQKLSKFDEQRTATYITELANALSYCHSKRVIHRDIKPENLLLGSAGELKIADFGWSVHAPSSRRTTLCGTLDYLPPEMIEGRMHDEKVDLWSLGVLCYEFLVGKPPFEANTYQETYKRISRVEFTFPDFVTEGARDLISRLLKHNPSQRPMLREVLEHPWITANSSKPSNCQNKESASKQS
Experimental: Compounds were screened in the following manner for their ability to inhibit Aurora using a standard coupled enzyme assay. To an assay stock buffer solution containing 0.1M HEPES 7.5, 10 mM MgCl2, 25 mM NaCl, 2.5 mM phosphoenolpyruvate, 300 μM NADH, 30 μg/mL pyruvate kinase, 10 μg/mL lactate dehydrogenase, 40 μM ATP, and 800 μM peptide (LRRASLG, American Peptide, Sunnyvale, Calif.) was added a 30 μM solution of the compound in DMSO and the resulting mixture incubated at 30° C. for 10 min. The reaction was initiated by the addition of 10 μL of 70 nM Aurora and 1 mM DTT. The rates of reaction were obtained by monitoring absorbance at 340 nm over a 5 minute read time at 30° C. using a BioRad Ultramark plate reader (Hercules, Calif.). The IC50 was determined from the rate data as a function of inhibitor concentration.
The compound numbers correspond to the compound numbers in Table 1.

AKT = AKT inhibition, standard coupled enzyme assay; type: biochemical
Experimental: Compounds were screened for their ability to inhibit AKT using a standard coupled enzyme assay (Fox et al., Protein Sci., (1998) 7, 2249). Assays were carried out in a mixture of 100 mM HEPES 7.5, 10 mM MgCl2, 25 mM NaCl , 1 mM DTT and 1.5% DMSO. Final substrate concentrations in the assay were 170 μM ATP (Sigma Chemicals) and 200 μM peptide (RPRAATF, American Peptide, Sunnyvale, Calif.). Assays were carried out at 30° C. and 45 nM AKT. Final concentrations of the components of the coupled enzyme system were 2.5 mM phosphoenolpyruvate, 300 μM NADH, 30 μg/ML pyruvate kinase and 10 μg/ml lactate dehydrogenase.
An assay stock buffer solution was prepared containing all of the reagents listed above, with the exception of AKT, DTT, and the test compound of interest. 56 μl of the stock solution was placed in a 384 well plate followed by addition of 1 μl of 2 mM DMSO stock containing the test compound (final compound concentration 30 μM). The plate was preincubated for about 10 minutes at 30° C. and the reaction initiated by addition of 10 μl of enzyme (final concentration 45 nM) and 1 mM DTT. Rates of reaction were obtained using a BioRad Ultramark plate reader (Hercules, Calif.) over a 5 minute read time at 30° C.

ERK2, sequence (P28482 whole entry): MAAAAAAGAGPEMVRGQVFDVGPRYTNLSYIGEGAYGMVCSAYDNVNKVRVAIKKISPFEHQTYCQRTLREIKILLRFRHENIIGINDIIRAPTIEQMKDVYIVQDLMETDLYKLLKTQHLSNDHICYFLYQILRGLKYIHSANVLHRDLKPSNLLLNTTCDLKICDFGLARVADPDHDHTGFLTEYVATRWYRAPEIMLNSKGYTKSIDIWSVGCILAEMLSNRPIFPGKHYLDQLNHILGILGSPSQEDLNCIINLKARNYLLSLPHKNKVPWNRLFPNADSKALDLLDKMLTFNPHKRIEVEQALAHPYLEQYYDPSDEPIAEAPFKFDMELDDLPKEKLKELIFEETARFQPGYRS
KDR, sequence (P35968 20-1356, species assumed): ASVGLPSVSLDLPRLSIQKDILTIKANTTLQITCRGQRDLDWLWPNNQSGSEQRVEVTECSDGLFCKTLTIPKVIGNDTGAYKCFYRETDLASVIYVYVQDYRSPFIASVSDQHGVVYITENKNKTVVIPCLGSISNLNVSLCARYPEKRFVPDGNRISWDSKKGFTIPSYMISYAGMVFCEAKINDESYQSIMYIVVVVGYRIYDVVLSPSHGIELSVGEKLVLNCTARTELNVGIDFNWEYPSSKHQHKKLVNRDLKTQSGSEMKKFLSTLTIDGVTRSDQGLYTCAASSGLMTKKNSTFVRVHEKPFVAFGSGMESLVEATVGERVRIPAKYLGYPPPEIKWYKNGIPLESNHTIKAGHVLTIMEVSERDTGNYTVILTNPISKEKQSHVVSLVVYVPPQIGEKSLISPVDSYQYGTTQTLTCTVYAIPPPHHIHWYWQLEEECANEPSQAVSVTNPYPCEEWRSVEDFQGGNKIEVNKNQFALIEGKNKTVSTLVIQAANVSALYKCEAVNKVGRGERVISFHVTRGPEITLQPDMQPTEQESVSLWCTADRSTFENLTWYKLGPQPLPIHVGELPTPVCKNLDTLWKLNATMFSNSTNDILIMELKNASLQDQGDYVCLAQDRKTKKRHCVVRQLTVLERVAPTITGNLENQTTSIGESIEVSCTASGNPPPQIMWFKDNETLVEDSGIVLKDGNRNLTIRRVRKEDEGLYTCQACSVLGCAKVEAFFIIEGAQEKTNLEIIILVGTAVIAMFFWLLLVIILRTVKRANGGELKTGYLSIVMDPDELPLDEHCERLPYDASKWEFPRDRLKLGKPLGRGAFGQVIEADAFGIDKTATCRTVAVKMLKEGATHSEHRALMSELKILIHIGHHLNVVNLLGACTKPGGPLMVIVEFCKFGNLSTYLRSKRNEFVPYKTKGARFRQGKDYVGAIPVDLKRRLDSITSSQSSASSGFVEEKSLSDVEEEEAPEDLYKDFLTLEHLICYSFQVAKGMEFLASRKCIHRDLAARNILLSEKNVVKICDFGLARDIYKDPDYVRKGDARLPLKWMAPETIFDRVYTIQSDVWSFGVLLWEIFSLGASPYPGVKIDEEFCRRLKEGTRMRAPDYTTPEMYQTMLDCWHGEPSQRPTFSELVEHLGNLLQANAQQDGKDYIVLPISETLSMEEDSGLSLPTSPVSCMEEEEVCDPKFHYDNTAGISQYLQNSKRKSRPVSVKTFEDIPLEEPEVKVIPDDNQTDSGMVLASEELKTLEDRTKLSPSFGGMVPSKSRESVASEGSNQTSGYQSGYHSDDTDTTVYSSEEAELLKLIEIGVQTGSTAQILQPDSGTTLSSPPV

SMILES | pKi (ERK2) | inhibition at 2 µM (KDR) | pIC50 [1] | pIC50 (Aurora2) | inhibit AKT (AKT)
O=C(NCc1ccc2c(c1)CCO2)c1cc(-c2[nH]ncc2-c2cccc(Br)c2)c[nH]1 [II-43] | > 6.00 | > 40% | > 5.00 |  | 
O=C(NC(CO)c1ccccc1)c1cc(-c2[nH]ncc2-c2cccc(Br)c2)c[nH]1 (centres unmarked) [II-45] | > 6.00 |  | > 5.00 |  | 
O=C(NCc1ccncc1)c1cc(-c2n[nH]cc2-c2cc(Cl)cc(Cl)c2)c[nH]1 [II-48] | > 6.00 | > 40% | > 5.00 | > 5.30 | 
O=C(NOCc1ccccc1)c1cc(-c2[nH]ncc2-c2cc(Cl)cc(Cl)c2)c[nH]1 [II-51] | > 6.00 |  |  | 5.00 to 5.30 | 
O=C(NOCc1ccccc1)c1cc(-c2[nH]ncc2-c2ccc(Cl)c(Cl)c2)c[nH]1 [II-54] | > 6.00 |  |  | 5.00 to 5.30 | 
O=C(NCc1ccncc1)c1cc(-c2[nH]ncc2-c2ccc(Cl)c(Cl)c2)c[nH]1 [II-61] | > 6.00 |  |  | > 5.30 | 
CCN(C)C(=O)c1cc(-c2[nH]ncc2-c2ccc(Cl)c(Cl)c2)c[nH]1 [II-64] | > 6.00 |  |  | > 5.30 | 
CCN(C)C(=O)c1cc(-c2[nH]ncc2-c2cc(Cl)cc(Cl)c2)c[nH]1 [II-66] | > 6.00 |  |  | 5.00 to 5.30 | 
O=C(NCc1ccncc1)c1cc(-c2[nH]ncc2-c2ccc(F)c(Cl)c2)c[nH]1 [II-70] | > 6.00 |  |  | 5.00 to 5.30 | 
O=C(NC(CO)c1ccccc1)c1cc(-c2[nH]ncc2-c2cccc(Br)c2)c[nH]1 (centres unmarked) [II-72] | > 6.00 |  |  | 5.00 to 5.30 | 
O=C(NCc1cccnc1)c1cc(-c2[nH]ncc2-c2cc(Cl)cc(Cl)c2)c[nH]1 [II-76] | > 6.00 |  |  | > 5.30 | 
O=C(NOCc1ccccc1)c1cc(-c2[nH]ncc2-c2ccc(F)c(Cl)c2)c[nH]1 [II-77] | > 6.00 |  |  | > 5.30 | 
CCN(C)C(=O)c1cc(-c2[nH]ncc2-c2cccc(Cl)c2F)c[nH]1 [II-81] | > 6.00 |  |  | > 5.30 | 
O=C(NOCc1ccccc1)c1cc(-c2[nH]ncc2-c2cccc(Cl)c2F)c[nH]1 [II-82] | > 6.00 |  |  | > 5.30 | 
O=C(NOCc1ccccc1)c1cc(-c2[nH]ncc2-c2ccc(F)c(F)c2)c[nH]1 [II-85] | > 6.00 |  |  | 5.00 to 5.30 | 
O=C(NCc1ccncc1)c1cc(-c2[nH]ncc2-c2ccc(F)c(F)c2)c[nH]1 [II-88] | > 6.00 |  |  | 5.00 to 5.30 | 
O=C(NOCc1ccccc1)c1cc(-c2[nH]ncc2-c2cccc(F)c2)c[nH]1 [II-89] | > 6.00 |  |  | > 5.30 | inhibit AKT

SMILES | pKi (ERK2) | inhibition at 2 µM (KDR) | pIC50 [1] | pIC50 (Aurora2) | inhibit AKT (AKT)
NS(=O)(=O)c1ccc(CNC(=O)c2cc(-c3[nH]ncc3-c3cccc(Br)c3)c[nH]2)cc1 [II-94] | > 6.00 |  |  |  | inhibit AKT
O=C(NCc1ccncc1)c1cc(-c2[nH]ncc2-c2cc(F)ccc2F)c[nH]1 [II-98] | > 6.00 |  |  | 5.00 to 5.30 | 
O=C(NOCc1ccccc1)c1cc(-c2[nH]ncc2-c2ccc(Cl)cc2)c[nH]1 [II-99] | > 6.00 |  |  | > 5.30 | 
O=C(NCc1cccnc1)c1cc(-c2[nH]ncc2-c2ccc(F)c(Cl)c2)c[nH]1 [II-101] | > 6.00 |  |  | > 5.30 | 
O=C(NOCc1ccccc1)c1cc(-c2[nH]ncc2-c2cccc(F)c2F)c[nH]1 [II-103] | > 6.00 |  |  | 5.00 to 5.30 | 
O=C(NCC1CCCO1)c1cc(-c2[nH]ncc2-c2cccc(Cl)c2F)c[nH]1 (centres unmarked) [II-106] | > 6.00 |  |  | 5.00 to 5.30 | 
CCN(C)C(=O)c1cc(-c2[nH]ncc2-c2ccc(F)c(Cl)c2)c[nH]1 [II-108] | > 6.00 |  |  | 5.00 to 5.30 | 
O=C(c1cc(-c2n[nH]cc2-c2cc(Cl)cc(Cl)c2)c[nH]1)N1CCOCC1 [II-112] | > 6.00 |  |  | > 5.30 | 
O=C(NOCc1ccccc1)c1cc(-c2[nH]ncc2-c2cc(F)ccc2F)c[nH]1 [II-113] | > 6.00 |  |  | > 5.30 | 
O=C(NCc1cccnc1)c1cc(-c2[nH]ncc2-c2cccc(Cl)c2F)c[nH]1 [II-114] | > 6.00 |  |  | > 5.30 | 
O=C(NCc1ccncc1)c1cc(-c2[nH]ncc2-c2cccc(Cl)c2F)c[nH]1 [II-115] | > 6.00 |  |  | > 5.30 | 
O=C(NCc1ccncc1)c1cc(-c2[nH]ncc2-c2cccc(F)c2F)c[nH]1 [II-141] | 5.30 to 6.00 |  |  | > 5.30 | 
O=C(NCCc1cnc[nH]1)c1cc(-c2[nH]ncc2-c2cccc(Cl)c2)c[nH]1 [II-142] | 5.30 to 6.00 |  |  | > 5.30 | 
CCN(C)C(=O)c1cc(-c2[nH]ncc2-c2ccc(OC)c(OC)c2)c[nH]1 [II-258] |  |  |  | < 5.00 | 
COc1ccc(-c2cn[nH]c2-c2c[nH]c(C(=O)NCC3CCCN(C(=O)OC(C)(C)C)C3)c2)cc1OC (centres unmarked) [II-259] |  |  |  | 5.00 to 5.30 | 
COc1ccc(-c2cn[nH]c2-c2c[nH]c(C(=O)NOCc3ccccc3)c2)cc1OC [II-260] |  |  |  | < 5.00 | 
O=C(NCCc1cnc[nH]1)c1cc(-c2[nH]ncc2-c2cc(Cl)cc(Cl)c2)c[nH]1 [II-266] |  |  |  | 5.00 to 5.30 | 
